Key:
Assay type in all cases: cell-based
[1] = target: mutant CFTR (Homo sapiens, UniProt P13569); assay: Fluorescence assay for CFTR activity (halide-sensitive YFP, HS-YFP); settings: CFBE41o- and FRT cells with stable expression of mutant CFTR
How it was run: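 CFBE41o- or FRT cells stably expressing mutant CFTR and HS-YFP; correctors given 24 h, then 30 min forskolin 20 μM plus genistein 50 μM. Potentiators given 30 min with forskolin 20 μM, after 24 h at 27° C. for F508del, directly for G551D or G1349D. Quenching rate after 100 mM final I^− gives EC50.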

[2] = target: T1, F508del-CFTR (Homo sapiens, UniProt P13569, DEL508-508); assay: Short-circuit current recordings on human bronchial epithelial cells from CF patients (F508del/F508del); parameters: Human bronchial epithelial (HBE) cells obtained from CF patients (F508del/F508del genotype); endogenous in cells; host or cells: primary human bronchial epithelial cells from CF patients, F508del/F508del; settings: HBE cells F508del/F508del, 24 hrs treatment, CPT-cAMP plus VX-770 minus CFTRinh-172
Protocol: Human bronchial epithelial (HBE) cells obtained from CF patients (F508del/F508del genotype) were plated on Snapwell inserts (Code 3801, Corning Life Sciences) at a density of 500,000 cells per insert. Cells were cultured for two weeks in a differentiating medium whose compositions has been previously described (Scudieri et al., J Physiol 590:6141-6155, 2012). For the first week, the medium was kept on both apical and basolateral sides of inserts (submerged condition). For the second week, the apical medium was removed (air-liquid condition, ALC). To test the activity of correctors, cells were treated for 24 hrs with compounds dissolved in the basolateral medium. After treatment, Snapwell inserts carrying differentiated bronchial epithelia were mounted in a vertical chamber resembling an Ussing system with internal fluid circulation. Both apical and basolateral hemichambers were filled with 5 mL of a Krebs bicarbonate solution containing (in mM): 126 NaCl, 0.38 KH2PO4, 2.13 K2HPO4, 1 MgSO4, 1 CaCl2, 24 NaHCO3, and 10 glucose. Both sides were continuously bubbled with a gas mixture containing 5% CO2-95% air and the temperature of the solution was kept at 37° C. The transepithelial voltage was short-circuited with a voltage-clamp (DVC-1000, World Precision Instruments) connected to the apical and basolateral chambers via Ag/AgCl electrodes and agar bridges (1 M KCl in 1% agar). The offset between voltage electrodes and the fluid resistance were canceled before experiments. The short-circuit current was recorded with a PowerLab 4/25 (ADInstruments) analogical to digital converter connected to a Macintosh computer. […] The difference between the current measured with CPT-cAMP plus potentiator and the current remaining after CFTRinh-172 treatment (ΔICFTR) was taken as the parameter reflecting F508del-CFTR expression in the apical membrane.
Activities of selected compounds on HBE cells (expressed as ΔICFTR) are illustrated in Table 3 wherein+: ΔICFTR<2.0 μA; ++: 2.0 μA<ΔICFTR<3.0 μA; +++: ΔICFTR >3.0 μA.

[3] = target: T1, F508del-CFTR; assay: Transepithelial electrical conductance (TEEC) in FRT cells expressing F508del-CFTR; parameters: expressed in transfected cells; host or cells: FRT cells; settings: tested at 5.0 μM, 24 hrs incubation
Protocol: FRT cells expressing F508del-CFTR were plated on HTS Transwell-24 well permeable supports (Code 3379, Corning Life Sciences) at a density of 200,000 cells/well. After six days, cells were incubated for 24 hrs with test correctors, vehicle, or VX-809. Compounds were dissolved in both basolateral (800 μL) and apical (300 μL) culture medium. After treatment, the culture medium was removed and replaced on both sides with a saline solution containing (in mM): 130 NaCl, 2.7 KCl, 1.5 KH2PO4, 1 CaCl2, 0.5 MgCl2, 10 glucose, 10 Na-Hepes (pH 7.4). The basolateral and apical side received 800 μL and 100 μL, respectively. The 24-well tray with cells was placed on a block heater (SBH 130D, Stuart) to keep the temperature at 37° C. during the entire experiment. After 10 min, the basal transepithelial electrical resistance (TEER) across each layer of FRT cells was measured with a STX100C electrode pair connected to an EVOM2 voltohmeter (World Precision Instruments). To stimulate F508del-CFTR, each well received (apical side) 50 μL of saline solution containing 60 μM forskolin and 150 μM genistein (final concentrations: 20 μM forskolin, 50 μM genistein). Forskolin was also pipetted in the basolateral medium to obtain the 20 μM concentration. After 10 min TEER was measured again in each well. To block F508del-CFTR function, the inhibitor PPQ-102 was used at the final concentration of 30 μM. To achieve the desired concentration, 75 μL of the apical solution in each well was replaced with an equal volume of saline solution containing 20 μM forskolin, 50 μM genistein, and 60 μM PPQ-102. After further 10 min, the transepithelial electrical resistance was measured. All values of TEER were converted to transepithelial electrical conductance (TEEC) using the formula TEEC=1/TEER. The parameter to indicate activity of F508del-CFTR in each well (ATEEC) was calculated from the difference in TEEC measured after maximal stimulation of F508del-CFTR with forskolin and genistein and after block with PPQ-102.
Corrector activities obtained on selected compounds tested at 5.0 μM (expressed as ΔTEEC values) are illustrated in Table 2, wherein+: ΔTEEC<2000 μS; ++: 2000 μS <ΔTEEC<3000ρS; +++: ΔTEEC>3000 μS.

mutant CFTR, sequence (P13569 with tags, fused parts or gaps DEL508-508): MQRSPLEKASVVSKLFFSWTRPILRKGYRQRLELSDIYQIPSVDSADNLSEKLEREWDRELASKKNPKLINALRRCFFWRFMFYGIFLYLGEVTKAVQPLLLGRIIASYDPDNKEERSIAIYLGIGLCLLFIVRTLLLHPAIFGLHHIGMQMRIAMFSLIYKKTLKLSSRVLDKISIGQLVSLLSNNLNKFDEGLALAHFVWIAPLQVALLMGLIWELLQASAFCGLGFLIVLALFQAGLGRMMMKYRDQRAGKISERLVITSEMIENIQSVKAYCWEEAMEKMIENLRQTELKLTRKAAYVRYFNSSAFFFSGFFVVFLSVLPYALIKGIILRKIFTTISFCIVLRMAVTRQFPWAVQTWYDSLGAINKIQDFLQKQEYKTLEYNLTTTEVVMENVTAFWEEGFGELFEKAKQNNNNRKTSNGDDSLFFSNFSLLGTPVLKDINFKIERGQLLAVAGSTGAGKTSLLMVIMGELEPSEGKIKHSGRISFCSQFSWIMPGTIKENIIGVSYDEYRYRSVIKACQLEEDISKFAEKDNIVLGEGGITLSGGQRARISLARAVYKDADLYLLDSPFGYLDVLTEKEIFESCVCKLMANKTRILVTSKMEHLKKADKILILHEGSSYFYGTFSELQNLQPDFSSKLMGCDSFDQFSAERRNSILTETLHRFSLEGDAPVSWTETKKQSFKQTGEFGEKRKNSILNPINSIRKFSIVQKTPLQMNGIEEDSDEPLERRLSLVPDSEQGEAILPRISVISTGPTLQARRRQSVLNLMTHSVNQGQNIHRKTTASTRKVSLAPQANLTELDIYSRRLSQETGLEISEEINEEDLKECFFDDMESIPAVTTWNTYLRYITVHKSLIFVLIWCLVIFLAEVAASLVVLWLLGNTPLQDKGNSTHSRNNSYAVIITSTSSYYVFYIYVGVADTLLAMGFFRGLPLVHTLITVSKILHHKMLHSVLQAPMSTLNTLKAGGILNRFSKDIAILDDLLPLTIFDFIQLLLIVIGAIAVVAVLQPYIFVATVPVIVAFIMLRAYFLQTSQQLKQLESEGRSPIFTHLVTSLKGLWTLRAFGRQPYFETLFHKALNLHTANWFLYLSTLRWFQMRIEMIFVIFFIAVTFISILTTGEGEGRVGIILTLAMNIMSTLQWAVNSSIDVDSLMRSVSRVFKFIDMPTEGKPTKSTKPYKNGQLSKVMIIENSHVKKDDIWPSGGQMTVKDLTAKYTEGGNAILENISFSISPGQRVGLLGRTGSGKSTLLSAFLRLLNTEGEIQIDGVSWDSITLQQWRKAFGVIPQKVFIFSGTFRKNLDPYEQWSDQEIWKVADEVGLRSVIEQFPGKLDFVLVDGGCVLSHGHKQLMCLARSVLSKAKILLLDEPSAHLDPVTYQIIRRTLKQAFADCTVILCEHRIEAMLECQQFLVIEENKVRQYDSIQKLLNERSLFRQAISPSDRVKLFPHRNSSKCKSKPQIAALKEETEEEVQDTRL
T1 sequence (P13569 with tags, fused parts or gaps DEL508-508): as above

EC50 [1] | activity (ΔICFTR) [2] | activity (corrector activity expressed as ΔTEEC) [3] | Structure (SMILES)
> 2 µM | + (ΔICFTR<2.0 μA) | ++ (2000 μS <ΔTEEC<3000ρS) | Cc1cc(S(=O)(=O)N2CCOC(c3c(C(N)=O)sc4ccccc34)C2)ccc1F (racemic) [compound 001, rac-3-[4-(4-fluoro-3-methyl-benzenesulfonyl)-morpholin-2-yl]-benzo[b]thiophene-2-carboxylic acid amide]
1 to 2 µM | +++ (ΔICFTR >3.0 μA) | ++ (2000 μS <ΔTEEC<3000ρS) | NC(=O)c1sc2ccccc2c1C1CN(S(=O)(=O)c2ccc(C(F)(F)F)cc2)CCO1 (racemic) [compound 011, rac-3-[4-[4-(trifluoromethyl)phenyl]sulfonylmorpholin-2-yl]benzothiophene-2-carboxamide]
< 1 µM | +++ (ΔICFTR >3.0 μA) | ++ (2000 μS <ΔTEEC<3000ρS) | Cc1nc2ccc(S(=O)(=O)N3CCOC(c4c(C(N)=O)sc5ccccc45)C3)cc2o1 (racemic) [compound 034, rac-3-[4-[(2-methyl-1,3-benzoxazol-6-yl)sulfonyl]morpholin-2-yl]benzothiophene-2-carboxamide]
< 1 µM | ++ (2.0 μA<ΔICFTR<3.0 μA) | +++ (ΔTEEC>3000 μS) | NC(=O)c1sc2ccccc2c1C1CN(S(=O)(=O)c2ccc(C(F)(F)F)c(F)c2)CCO1 (racemic) [compound 041, rac-3-[4-[3-fluoro-4-(trifluoromethyl)phenyl]sulfonylmorpholin-2-yl]benzothiophene-2-carboxamide]

From patent US12391680B2, “Compounds and compositions for the treatment of cystic fibrosis” (FONDAZIONE ISTITUTO ITALIANO DI TECNOLOGIA, priority 2019, dated 2025)
